Assay results from patent US20260108483A1, “METHODS AND COMPOSITIONS FOR PREVENTING THE PROGRESSION OF DIABETIC RETINOPATHY AND RELATED CONDITIONS” (Opus Genetics, Inc., priority 2023, published 2026).

Tested on: diabetic retinopathy (moderately severe to severe NPDR or mild PDR)
Experiment: Phase 2 placebo-controlled clinical study: three or more step worsening in binocular Diabetic Retinopathy Severity Scale Score
Format: in vivo, human
Conditions: weeks 12 and 24; 600 mg/day oral (3+2 tablets of 120 mg) vs placebo
Source text: Ability of Compound 1 to prevent the progression of non-proliferative diabetic retinopathy (NPDR) and mild proliferative diabetic retinopathy (PDR) may be evaluated according to a clinical study in which Compound 1 was orally administered to patients suffering from non-proliferative diabetic retinopathy or mild proliferative diabetic retinopathy. Compound 1 has the chemical name (E)-2-((4,5-dimethoxy-2-methyl-3,6-dioxocyclohexa-1,4-dien-1-yl)methylene)undecanoic acid, and is depicted by the following chemical formula: The study was configured as a placebo-controlled, double-masked, randomized, Phase 2 study in approximately 100 subjects with moderately severe to severe NPDR (diabetic retinopathy severity score [DRSS] Level 47 or 53, see FIG. 1) or mild PDR (DRSS Level 61), evaluating safety and efficacy following administration of Compound 1 twice daily for 24 weeks. The study was configured for a 1:1 randomization (placebo: Compound 1). Randomization was stratified by level of disease severity (NPDR or PDR). Subjects with mild PDR were capped at 20% for each arm. Efficacy evaluations at 12 and/or 24 weeks included DRSS, center-involved diabetic macular edema (DME), moderate PDR or PDR-related adverse events (AEs), best-corrected visual acuity (BCVA), and central subfield thickness (CST). Further experimental procedures and results are described below. […]

CCCCCCCCC/C(=C\C1=C(C)C(=O)C(OC)=C(OC)C1=O)C(=O)O [Compound 1, (E)-2-((4,5-dimethoxy-2-methyl-3,6-dioxocyclohexa-1,4-dien-1-yl)methylene)undecanoic acid]
preventing the progression of diabetic retinopathy (patients with three or more step worsening in binocular DRSS, FIG. 3): effective in preventing the progression of diabetic retinopathy
